Test results taken from patent publication US20260027116A1, “Methods of Treating Chronic Graft-Versus-Host Disease Following Allogeneic Hematopoietic Stem Cell Transplantation” (Kadmon Corporation, LLC, priority 2022, published 2026).

Key:
OATPIB1 = target: T1, OATPIB1 (Homo sapiens, UniProt Q9Y6L6); test: transporter inhibition in vitro; assay type: in vitro ADME; conditions: at clinically relevant concentrations
T1 sequence (Q9Y6L6 1-691): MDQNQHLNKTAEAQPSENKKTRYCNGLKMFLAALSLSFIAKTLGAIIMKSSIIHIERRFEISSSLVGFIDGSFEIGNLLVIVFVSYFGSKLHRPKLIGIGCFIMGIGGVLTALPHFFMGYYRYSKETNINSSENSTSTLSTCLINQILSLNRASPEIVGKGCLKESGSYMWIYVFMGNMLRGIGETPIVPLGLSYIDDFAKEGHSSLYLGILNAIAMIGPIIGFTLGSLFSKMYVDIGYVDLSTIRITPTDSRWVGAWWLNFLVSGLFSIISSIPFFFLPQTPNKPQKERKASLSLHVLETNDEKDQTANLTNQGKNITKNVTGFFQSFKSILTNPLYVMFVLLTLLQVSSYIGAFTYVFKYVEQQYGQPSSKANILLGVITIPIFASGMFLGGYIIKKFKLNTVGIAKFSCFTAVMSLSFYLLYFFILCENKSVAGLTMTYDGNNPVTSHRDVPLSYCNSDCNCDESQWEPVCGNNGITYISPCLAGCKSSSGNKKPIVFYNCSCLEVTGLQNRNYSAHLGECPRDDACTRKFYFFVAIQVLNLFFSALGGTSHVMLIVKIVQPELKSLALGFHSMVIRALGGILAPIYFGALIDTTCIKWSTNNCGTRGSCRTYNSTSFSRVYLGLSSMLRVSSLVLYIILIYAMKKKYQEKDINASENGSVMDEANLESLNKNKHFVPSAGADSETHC

lung function = test: Example 1: percent predicted FEV1 change from baseline; assay type: in vivo, human
Protocol: Change From Baseline in Percent Predicted Forced Expiratory Volume in 1 Second (FEV1) at Each Specified Time Points. FEV1 was the volume of air exhaled from the lungs in the first second of a forced expiration as measured by spirometer. Baseline value was defined as valid and last non-missing value obtained within 28 days prior to participant receiving first study medication. EOT visit was performed within 3 days after the participant's last dose of study drug. […] Analysis was performed on mITT population. Here, ‘number analyzed’=participants with available data for each specified category. Here, ‘O’ in the number analyzed field signifies that none of the participants were available for the analysis at the specified time points.

CC(C)NC(=O)COc1cccc(-c2nc(Nc3ccc4[nH]ncc4c3)c3ccccc3n2)c1 [Belumosudil, 2-{3-[4-(1H-indazol-5-ylamino)-2-quinazolinyl]phenoxy}-N-(propan-2-yl) acetamide]
inhibition of OATPIB1 (OATPIB1): inhibits | Change From Baseline in Percent Predicted Forced Expiratory Volume in 1 Second (FEV1), Mean (Standard Deviation) (lung function; Cohort 1: 200 mg QD, Cycle 3, Day 1): 1.1 (4.8) percent predicted FEV1 | Change From Baseline in Percent Predicted Forced Expiratory Volume in 1 Second (FEV1), Mean (Standard Deviation) (lung function; Cohort 1: 200 mg QD, Cycle 5, Day 1): −3.3 (8.0) percent predicted FEV1 | Change From Baseline in Percent Predicted Forced Expiratory Volume in 1 Second (FEV1), Mean (Standard Deviation) (lung function; Cohort 1: 200 mg QD, Cycle 7, Day 1): −3.5 (4.6) percent predicted FEV1 | Change From Baseline in Percent Predicted Forced Expiratory Volume in 1 Second (FEV1), Mean (Standard Deviation) (lung function; Cohort 1: 200 mg QD, Cycle 9, Day 1): −1.7 (6.8) percent predicted FEV1 | Change From Baseline in Percent Predicted Forced Expiratory Volume in 1 Second (FEV1), Mean (Standard Deviation) (lung function; Cohort 1: 200 mg QD, Cycle 11, Day 1): −4.3 (5.2) percent predicted FEV1 | Change From Baseline in Percent Predicted Forced Expiratory Volume in 1 Second (FEV1), Mean (Standard Deviation) (lung function; Cohort 1: 200 mg QD, Cycle 12, Day 1): −2.0 (—) percent predicted FEV1 | Change From Baseline in Percent Predicted Forced Expiratory Volume in 1 Second (FEV1), Mean (Standard Deviation) (lung function; Cohort 1: 200 mg QD, Cycle 13, Day 1): −5.9 (9.3) percent predicted FEV1 | Change From Baseline in Percent Predicted Forced Expiratory Volume in 1 Second (FEV1), Mean (Standard Deviation) (lung function; Cohort 1: 200 mg QD, Cycle 14, Day 1): 2.0 (—) percent predicted FEV1 | Change From Baseline in Percent Predicted Forced Expiratory Volume in 1 Second (FEV1), Mean (Standard Deviation) (lung function; Cohort 1: 200 mg QD, Cycle 15, Day 1): −6.7 (11.7) percent predicted FEV1 | Change From Baseline in Percent Predicted Forced Expiratory Volume in 1 Second (FEV1), Mean (Standard Deviation) (lung function; Cohort 1: 200 mg QD, Cycle 16, Day 1): 2.0 (—) percent predicted FEV1 | Change From Baseline in Percent Predicted Forced Expiratory Volume in 1 Second (FEV1), Mean (Standard Deviation) (lung function; Cohort 1: 200 mg QD, Cycle 17, Day 1): −5.3 (9.1) percent predicted FEV1 | Change From Baseline in Percent Predicted Forced Expiratory Volume in 1 Second (FEV1), Mean (Standard Deviation) (lung function; Cohort 1: 200 mg QD, Cycle 19, Day 1): −5.2 (9.9) percent predicted FEV1 | Change From Baseline in Percent Predicted Forced Expiratory Volume in 1 Second (FEV1), Mean (Standard Deviation) (lung function; Cohort 1: 200 mg QD, Cycle 25, Day 1): −11.0 (15.6) percent predicted FEV1 | Change From Baseline in Percent Predicted Forced Expiratory Volume in 1 Second (FEV1), Mean (Standard Deviation) (lung function; Cohort 1: 200 mg QD, Cycle 26, Day 1): 0.0 (—) percent predicted FEV1 | Change From Baseline in Percent Predicted Forced Expiratory Volume in 1 Second (FEV1), Mean (Standard Deviation) (lung function; Cohort 1: 200 mg QD, Cycle 27, Day 1): −6.5 (13.4) percent predicted FEV1 | Change From Baseline in Percent Predicted Forced Expiratory Volume in 1 Second (FEV1), Mean (Standard Deviation) (lung function; Cohort 1: 200 mg QD, Cycle 29, Day 1): −0.5 (9.2) percent predicted FEV1 | Change From Baseline in Percent Predicted Forced Expiratory Volume in 1 Second (FEV1), Mean (Standard Deviation) (lung function; Cohort 1: 200 mg QD, Cycle 30, Day 1): 3.0 (—) percent predicted FEV1 | Change From Baseline in Percent Predicted Forced Expiratory Volume in 1 Second (FEV1), Mean (Standard Deviation) (lung function; Cohort 1: 200 mg QD, Cycle 31, Day 1): −3.5 (12.0) percent predicted FEV1 | Change From Baseline in Percent Predicted Forced Expiratory Volume in 1 Second (FEV1), Mean (Standard Deviation) (lung function; Cohort 1: 200 mg QD, Cycle 32, Day 1): 1.0 (—) percent predicted FEV1 | Change From Baseline in Percent Predicted Forced Expiratory Volume in 1 Second (FEV1), Mean (Standard Deviation) (lung function; Cohort 1: 200 mg QD, Cycle 33, Day 1): 5.0 (5.7) percent predicted FEV1 | Change From Baseline in Percent Predicted Forced Expiratory Volume in 1 Second (FEV1), Mean (Standard Deviation) (lung function; Cohort 1: 200 mg QD, Cycle 34, Day 1): 2.0 (—) percent predicted FEV1 | Change From Baseline in Percent Predicted Forced Expiratory Volume in 1 Second (FEV1), Mean (Standard Deviation) (lung function; Cohort 1: 200 mg QD, Cycle 35, Day 1): 5.0 (0.0) percent predicted FEV1 | Change From Baseline in Percent Predicted Forced Expiratory Volume in 1 Second (FEV1), Mean (Standard Deviation) (lung function; Cohort 1: 200 mg QD, Cycle 36, Day 1): 3.0 (—) percent predicted FEV1 | Change From Baseline in Percent Predicted Forced Expiratory Volume in 1 Second (FEV1), Mean (Standard Deviation) (lung function; Cohort 1: 200 mg QD, Cycle 37, Day 1): −1.0 (—) percent predicted FEV1 | Change From Baseline in Percent Predicted Forced Expiratory Volume in 1 Second (FEV1), Mean (Standard Deviation) (lung function; Cohort 1: 200 mg QD, Cycle 38, Day 1): 1.0 (—) percent predicted FEV1 | Change From Baseline in Percent Predicted Forced Expiratory Volume in 1 Second (FEV1), Mean (Standard Deviation) (lung function; Cohort 1: 200 mg QD, Cycle 39, Day 1): 10.0 (2.8) percent predicted FEV1 | Change From Baseline in Percent Predicted Forced Expiratory Volume in 1 Second (FEV1), Mean (Standard Deviation) (lung function; Cohort 1: 200 mg QD, Cycle 40, Day 1): −1.0 (—) percent predicted FEV1 | Change From Baseline in Percent Predicted Forced Expiratory Volume in 1 Second (FEV1), Mean (Standard Deviation) (lung function; Cohort 1: 200 mg QD, Cycle 41, Day 1): 15.0 (—) percent predicted FEV1 | Change From Baseline in Percent Predicted Forced Expiratory Volume in 1 Second (FEV1), Mean (Standard Deviation) (lung function; Cohort 1: 200 mg QD, Cycle 43, Day 1): 16.0 (—) percent predicted FEV1 | Change From Baseline in Percent Predicted Forced Expiratory Volume in 1 Second (FEV1), Mean (Standard Deviation) (lung function; Cohort 1: 200 mg QD, Cycle 47, Day 1): 5.0 (—) percent predicted FEV1 | Change From Baseline in Percent Predicted Forced Expiratory Volume in 1 Second (FEV1), Mean (Standard Deviation) (lung function; Cohort 1: 200 mg QD, Cycle 48, Day 1): 3.0 (—) percent predicted FEV1 | Change From Baseline in Percent Predicted Forced Expiratory Volume in 1 Second (FEV1), Mean (Standard Deviation) (lung function; Cohort 1: 200 mg QD, Cycle 49, Day 1): 8.0 (—) percent predicted FEV1 | Change From Baseline in Percent Predicted Forced Expiratory Volume in 1 Second (FEV1), Mean (Standard Deviation) (lung function; Cohort 1: 200 mg QD, Cycle 51, Day 1): 8.0 (—) percent predicted FEV1 | Change From Baseline in Percent Predicted Forced Expiratory Volume in 1 Second (FEV1), Mean (Standard Deviation) (lung function; Cohort 1: 200 mg QD, Cycle 52, Day 1): 0.0 (—) percent predicted FEV1 | Change From Baseline in Percent Predicted Forced Expiratory Volume in 1 Second (FEV1), Mean (Standard Deviation) (lung function; Cohort 1: 200 mg QD, Cycle 53, Day 1): 9.0 (—) percent predicted FEV1 | Change From Baseline in Percent Predicted Forced Expiratory Volume in 1 Second (FEV1), Mean (Standard Deviation) (lung function; Cohort 1: 200 mg QD, Cycle 54, Day 1): 4.0 (—) percent predicted FEV1 | Change From Baseline in Percent Predicted Forced Expiratory Volume in 1 Second (FEV1), Mean (Standard Deviation) (lung function; Cohort 1: 200 mg QD, Cycle 55, Day 1): 13.0 (—) percent predicted FEV1 | Change From Baseline in Percent Predicted Forced Expiratory Volume in 1 Second (FEV1), Mean (Standard Deviation) (lung function; Cohort 1: 200 mg QD, Cycle 56, Day 1): 4.0 (—) percent predicted FEV1 | Change From Baseline in Percent Predicted Forced Expiratory Volume in 1 Second (FEV1), Mean (Standard Deviation) (lung function; Cohort 1: 200 mg QD, Cycle 57, Day 1): 13.0 (—) percent predicted FEV1 | Change From Baseline in Percent Predicted Forced Expiratory Volume in 1 Second (FEV1), Mean (Standard Deviation) (lung function; Cohort 1: 200 mg QD, Cycle 58, Day 1): 5.0 (—) percent predicted FEV1 | Change From Baseline in Percent Predicted Forced Expiratory Volume in 1 Second (FEV1), Mean (Standard Deviation) (lung function; Cohort 1: 200 mg QD, Cycle 60, Day 1): 4.0 (—) percent predicted FEV1 | Change From Baseline in Percent Predicted Forced Expiratory Volume in 1 Second (FEV1), Mean (Standard Deviation) (lung function; Cohort 1: 200 mg QD, Cycle 61, Day 1): 10.0 (—) percent predicted FEV1 | Change From Baseline in Percent Predicted Forced Expiratory Volume in 1 Second (FEV1), Mean (Standard Deviation) (lung function; Cohort 1: 200 mg QD, Cycle 62, Day 1): 2.0 (—) percent predicted FEV1 | Change From Baseline in Percent Predicted Forced Expiratory Volume in 1 Second (FEV1), Mean (Standard Deviation) (lung function; Cohort 1: 200 mg QD, Cycle 63, Day 1): 13.0 (—) percent predicted FEV1 | Change From Baseline in Percent Predicted Forced Expiratory Volume in 1 Second (FEV1), Mean (Standard Deviation) (lung function; Cohort 1: 200 mg QD, Cycle 67, Day 1): 14.0 (—) percent predicted FEV1 | Change From Baseline in Percent Predicted Forced Expiratory Volume in 1 Second (FEV1), Mean (Standard Deviation) (lung function; Cohort 1: 200 mg QD, EOT): −1.4 (9.0) percent predicted FEV1 | Change From Baseline in Percent Predicted Forced Expiratory Volume in 1 Second (FEV1), Mean (Standard Deviation) (lung function; Cohort 2: 200 mg BID, Cycle 3, Day 1): −1.8 (7.1) percent predicted FEV1 | Change From Baseline in Percent Predicted Forced Expiratory Volume in 1 Second (FEV1), Mean (Standard Deviation) (lung function; Cohort 2: 200 mg BID, Cycle 5, Day 1): −5.0 (6.5) percent predicted FEV1 | Change From Baseline in Percent Predicted Forced Expiratory Volume in 1 Second (FEV1), Mean (Standard Deviation) (lung function; Cohort 2: 200 mg BID, Cycle 7, Day 1): −2.6 (9.4) percent predicted FEV1 | Change From Baseline in Percent Predicted Forced Expiratory Volume in 1 Second (FEV1), Mean (Standard Deviation) (lung function; Cohort 2: 200 mg BID, Cycle 8, Day 1): 1.0 (—) percent predicted FEV1 | Change From Baseline in Percent Predicted Forced Expiratory Volume in 1 Second (FEV1), Mean (Standard Deviation) (lung function; Cohort 2: 200 mg BID, Cycle 9, Day 1): −5.9 (11.7) percent predicted FEV1 | Change From Baseline in Percent Predicted Forced Expiratory Volume in 1 Second (FEV1), Mean (Standard Deviation) (lung function; Cohort 2: 200 mg BID, Cycle 10, Day 1): −6.0 (8.5) percent predicted FEV1 | Change From Baseline in Percent Predicted Forced Expiratory Volume in 1 Second (FEV1), Mean (Standard Deviation) (lung function; Cohort 2: 200 mg BID, Cycle 11, Day 1): −4.0 (8.5) percent predicted FEV1 | Change From Baseline in Percent Predicted Forced Expiratory Volume in 1 Second (FEV1), Mean (Standard Deviation) (lung function; Cohort 2: 200 mg BID, Cycle 12, Day 1): −1.0 (—) percent predicted FEV1
